We go through 8 molecules from patent US12371454B2, “Cyclic peptide compound having Kras inhibitory action” (priority 2019, dated 2025).

Experiment [1] deals with T1, Kras and SOS1 (biotin-tagged human Kras loaded with GDP, His-tagged human SOS1) (Homo sapiens, UniProt P01116, G12D).
T1 construct: made in house; host or cells: E. coli (stated for Kras only)
The experiment is described as follows: Protein-protein interaction inhibition between Kras and SOS1 (KrasGl2D-SOS PPI) using AlphaScreen. The format is binding. Particulars: AlphaScreen; biotin-tagged human Kras loaded with GDP, His-tagged human SOS1; read-out: KRAS G12D-SOS PPI IC50. The gist of the method:
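Energy transfer from nickel-chelate donor beads bound to His-SOS1 to streptavidin acceptor beads bound to biotin-Kras, expressed in E. coli and loaded with GDP after purification, was monitored. Donors were excited at 680 nm; singlet oxygen reaching acceptors gave emission read at 520-620 nm.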

The subject of experiment [2] is Human pancreatic cancer cell line AsPC-1. The experiment is described as follows: Measurement of AsPC-1 cell growth inhibition (AsPC-1 CGI). The format is cell-based. Conditions: 96 h. In outline: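 AsPC-1 cells in 15% FBS RPMI-1640 were exposed to test compound for 96 hours at 37° C, with CellTiter-Glo as endpoint.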

Starred links: 1 amine or outer side, 2 acyl side, 3 side chain; linkers in the order of their positions; H or OH if unused. Positions of bridges follow the written chain, without caps; N, C: chain ends. Non-standard residues stand in square brackets, D forms with d. Residues, ends and D or L forms follow the SMILES beside them. *: point of attachment. hPhe(3-Cl-4-CF3) = N[C@@H](CCc1ccc(C(F)(F)F)c(Cl)c1)C(=O)O; NMePhe(4-CF3) = CN[C@@H](Cc1ccc(C(F)(F)F)cc1)C(=O)O; NMePhe(4-I) = CN[C@@H](Cc1ccc(I)cc1)C(=O)O; NMedβ3hAla = C[C@H](CC(=O)[*:2])N(C)[*:1]; NMePhe(2-F) = CN[C@@H](Cc1ccccc1F)C(=O)O; NMeGly(cPent) = CN[C@H](C(=O)O)C1CCCC1; NMeGly(cBu) = CN[C@H](C(=O)O)C1CCC1; NMeCha = CN[C@@H](CC1CCCCC1)C(=O)O; NMehLeu = CN[C@@H](CCC(C)C)C(=O)O; NMeChg = CN[C@H](C(=O)O)C1CCCCC1; NMeF = CN[C@@H](Cc1ccccc1)C(=O)O; Piperidide(4-Me) = CC1CCN(*)CC1; NMeD = CN[C@@H](CC(=O)O)C(=O)O; NMeHpra = C#CCC[C@H](NC)C(=O)O; NMeL = CN[C@@H](CC(C)C)C(=O)O; NMeV = CN[C@H](C(=O)O)C(C)C; NMeAbu = CC[C@H](NC)C(=O)O; NMeS = CN[C@@H](CO)C(=O)O; Morpholide = C1CN(*)CCO1; NMeA = CN[C@@H](C)C(=O)O; Piperidide = C1CCN(*)CC1; Ac5c = NC1(C(=O)O)CCCC1; Aze = O=C(O)[C@@H]1CCN1; Isopentyl = CC(C)CC*; Sar = CNCC(=O)O

T1 sequence (P01116 1-188 isoform P01116-2 G12D): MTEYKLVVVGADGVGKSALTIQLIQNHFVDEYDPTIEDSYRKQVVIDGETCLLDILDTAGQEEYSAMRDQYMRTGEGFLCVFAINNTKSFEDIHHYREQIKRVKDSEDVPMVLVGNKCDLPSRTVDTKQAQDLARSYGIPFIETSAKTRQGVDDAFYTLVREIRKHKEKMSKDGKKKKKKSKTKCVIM

With `C#CCC[C@H]1C(=O)N[C@@H]([C@@H](C)CC)C(=O)N(C)CC(=O)N(C)CC(=O)N(C)[C@@H](Cc2ccc(I)cc2)C(=O)N(C)CC(=O)N[C@@H](CCc2ccc(C(F)(F)F)c(Cl)c2)C(=O)N2CCC[C@H]2C(=O)NC2(CCCC2)C(=O)N(C)[C@@H](C2CCCCC2)C(=O)N(C)[C@H](C)CC(=O)N1C` [Compound 110] (cyclo([Ac5c][NMeChg][NMedβ3hAla][NMeHpra]I[Sar][Sar][NMePhe(4-I)][Sar][hPhe(3-Cl-4-CF3)]P)), the IC50 in experiment [1] was 3.8 nM; in experiment [2], 100 to 500 nM.
Consider `CC[C@H](C)[C@@H]1NC(=O)[C@H](CC(C)C)N(C)C(=O)C[C@@H](C(=O)N2CCCCC2)N(C)C(=O)[C@H](C(C)C)N(C)C(=O)C2(CCCC2)NC(=O)[C@@H]2CCCN2C(=O)[C@H](CCc2ccc(C(F)(F)F)c(Cl)c2)NC(=O)CN(C)C(=O)[C@H](CCC(C)C)N(C)C(=O)[C@@H]2CCN2C(=O)[C@H](C)N(C)C1=O` [Compound 1709] ([NMeL]I[NMeA][Aze][NMehLeu][Sar][hPhe(3-Cl-4-CF3)]P[Ac5c][NMeV][NMeD]-Piperidide; lactam N-11), for which the values for the IC50 in experiment [1] and in experiment [2] were 10 nM and 100 to 500 nM, respectively.
Taken in the same sequence, the figures for `CC[C@H](C)[C@@H]1NC(=O)[C@H](CC(C)C)N(C)C(=O)C[C@@H](C(=O)N(C)C)N(C)C(=O)[C@H](C2CCCC2)N(C)C(=O)C2(CCCC2)NC(=O)[C@H](COCCC(C)C)N(C)C(=O)[C@H](CCc2ccc(C(F)(F)F)c(Cl)c2)NC(=O)CN(C)C(=O)[C@H](CC2CCCCC2)N(C)C(=O)[C@@H]2CCN2C(=O)[C@H](C)N(C)C1=O` [Compound 250] ([NMeL]I[NMeA][Aze][NMeCha][Sar][hPhe(3-Cl-4-CF3)][NMeS](Isopentyl)[Ac5c][NMeGly(cPent)][NMeD]-NMe2; lactam N-11) were 9.8 nM and 100 to 500 nM.
Taken in the same sequence, the figures for `CC[C@H](C)[C@@H]1NC(=O)[C@H](CC(C)C)N(C)C(=O)C[C@@H](C(=O)N2CCCCC2)N(C)C(=O)[C@H](C2CCC2)N(C)C(=O)C2(CCCC2)NC(=O)[C@@H]2CCCN2C(=O)[C@H](CCc2ccc(C(F)(F)F)c(Cl)c2)NC(=O)CN(C)C(=O)[C@H](CC2CCCCC2)N(C)C(=O)CN(C)C(=O)CN(C)C1=O` [Compound 1128] ([NMeL]I[Sar][Sar][NMeCha][Sar][hPhe(3-Cl-4-CF3)]P[Ac5c][NMeGly(cBu)][NMeD]-Piperidide; lactam N-11) were 2.1 nM and 100 to 500 nM.
The corresponding values for `CC[C@H](C)[C@@H]1NC(=O)[C@H](CC)N(C)C(=O)C[C@@H](C(=O)N2CCOCC2)N(C)C(=O)[C@H](C2CCCCC2)N(C)C(=O)C2(CCCC2)NC(=O)[C@@H]2CCCN2C(=O)[C@H](CCc2ccc(C(F)(F)F)c(Cl)c2)NC(=O)CN(C)C(=O)[C@H](Cc2ccc(C(F)(F)F)cc2)N(C)C(=O)CN(C)C(=O)CN(C)C1=O` [Compound 1884] ([NMeAbu]I[Sar][Sar][NMePhe(4-CF3)][Sar][hPhe(3-Cl-4-CF3)]P[Ac5c][NMeChg][NMeD]-Morpholide; lactam N-11) are 0.41 nM and 20 to 50 nM.
As to `CC[C@H](C)[C@@H]1NC(=O)[C@H](CC(C)C)N(C)C(=O)C[C@@H](C)N(C)C(=O)[C@H](C(C)C)N(C)C(=O)C2(CCCC2)NC(=O)[C@@H]2CCCN2C(=O)[C@H](CCc2ccc(C(F)(F)F)c(Cl)c2)NC(=O)CN(C)C(=O)[C@H](Cc2ccccc2F)N(C)C(=O)CN(C)C(=O)CN(C)C1=O` [Compound 1599] (cyclo([Ac5c][NMeV][NMedβ3hAla][NMeL]I[Sar][Sar][NMePhe(2-F)][Sar][hPhe(3-Cl-4-CF3)]P)), the IC50 in experiment [1] is 17 nM; in experiment [2], 100 to 500 nM.
In the case of `CC[C@H](C)[C@@H]1NC(=O)[C@H](CC(C)C)N(C)C(=O)C[C@@H](C(=O)N2CCC(C)CC2)N(C)C(=O)[C@H](C2CCCCC2)N(C)C(=O)C2(CCCC2)NC(=O)[C@@H]2CCCN2C(=O)[C@H](CCc2ccc(C(F)(F)F)c(Cl)c2)NC(=O)CN(C)C(=O)[C@H](CC2CCCCC2)N(C)C(=O)CN(C)C(=O)CN(C)C1=O` [Compound 1347] ([NMeL]I[Sar][Sar][NMeCha][Sar][hPhe(3-Cl-4-CF3)]P[Ac5c][NMeChg][NMeD]-{Piperidide(4-Me)}; lactam N-11), the results for the IC50 in experiment [1] and in experiment [2] were 1.3 nM and 100 to 500 nM, respectively.
Taken in the same sequence, the figures for `CC[C@H](C)[C@@H]1NC(=O)[C@H](CC(C)C)N(C)C(=O)C[C@@H](C(=O)N(C)C)N(C)C(=O)[C@H](C2CCCC2)N(C)C(=O)C2(CCCC2)NC(=O)[C@H](Cc2ccccc2)N(C)C(=O)[C@H](CCc2ccc(C(F)(F)F)c(Cl)c2)NC(=O)CN(C)C(=O)[C@H](CC2CCCCC2)N(C)C(=O)[C@@H]2CCN2C(=O)[C@H](C)N(C)C1=O` [Compound 854] ([NMeL]I[NMeA][Aze][NMeCha][Sar][hPhe(3-Cl-4-CF3)][NMeF][Ac5c][NMeGly(cPent)][NMeD]-NMe2; lactam N-11) were 11 nM and 100 to 500 nM.

A word on the IC50: it is the concentration that gives 50% inhibition.
